Reference: ChEMBL document CHEMBL1201862, “PubChem BioAssay data set” (2004)
Active and inactive are the calls of the source.

Tests used:
[1] = target: T1, ATP-dependent translocase ABCB1 (Homo sapiens, UniProt P08183); assay: ABCB1 efflux inhibitor potency, dose response, Jurkat-DNR cells, JC-1, flow cytometry, set 2 (AID 504569); assay type: functional; conditions: read-out: EC50_MICROM_;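 also: potency of pump inhibitors that raise cellular JC-1 green fluorescence up to the nicardipine level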
[2] = target: T1, ATP-dependent translocase ABCB1; assay: ABCG2 efflux pump inhibitor potency, dose response, Ig-MXP3 cells, JC-1, flow cytometry, set 2 (AID 504566); assay type: functional; conditions: read-out: EC50_MICROM_;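 also: flow cytometry median green fluorescence of retained JC-1 dye; potency of efflux pump inhibition measured as rising substrate retention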
[3] = target: T2, Zinc finger protein mex-5 (Caenorhabditis elegans, UniProt Q9XUB2); assay: MEX-5/TCR-2 RNA interaction inhibitors, dose response, biochemical, C. elegans, fluorescence polarization (AID 1960)
T2 sequence (Q9XUB2 whole entry): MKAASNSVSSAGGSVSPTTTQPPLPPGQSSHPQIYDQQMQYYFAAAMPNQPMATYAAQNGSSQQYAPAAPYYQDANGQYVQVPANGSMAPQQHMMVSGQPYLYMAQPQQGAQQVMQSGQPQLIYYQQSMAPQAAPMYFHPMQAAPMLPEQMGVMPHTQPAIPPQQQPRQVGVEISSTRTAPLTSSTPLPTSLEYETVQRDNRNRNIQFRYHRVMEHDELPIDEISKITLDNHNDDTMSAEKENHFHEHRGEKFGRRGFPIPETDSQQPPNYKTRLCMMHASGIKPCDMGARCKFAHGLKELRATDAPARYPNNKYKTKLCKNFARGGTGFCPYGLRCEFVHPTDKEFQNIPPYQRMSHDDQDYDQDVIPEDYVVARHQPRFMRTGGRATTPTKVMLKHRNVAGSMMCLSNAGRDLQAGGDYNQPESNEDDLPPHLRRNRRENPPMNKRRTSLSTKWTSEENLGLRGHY

[4] = target: ADP-ribosylation factor GTPase-activating protein 1 (Rattus norvegicus, UniProt Q62848); assay: Fluorescence polarization-based biochemical high throughput dose response screening assay to identify inhibitors of ADP-ribosylation factor GTPase activating protein 1 (ARFGAP1).; assay type: functional
[5] = system: BJ; assay: cytotoxicity toward BJ-TERT fibroblasts, dose response, cell-based, RAS-independent, luminescence (AID 1933); assay type: functional; conditions: Homo sapiens
[6] = system: BJ; assay: cells; assay type: functional, cell-based; conditions: Homo sapiens
[7] = cytotoxicity toward DRD oncogenic fibroblasts, dose response, cell-based, non-viral oncogenic, luminescence (AID 1934); assay type: functional; conditions: Homo sapiens
[8] = target: T3, RNA-binding protein pos-1 (Caenorhabditis elegans, UniProt G5EF15); assay: inhibitors of POS-1/mex-3 RNA binding, dose response, biochemical, fluorescence polarization (AID 1964);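 also: purified POS-1 fused to maltose binding protein made in E. coli; potency of compounds blocking POS-1 binding to fluorescent RNA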
T3 sequence (G5EF15 whole entry): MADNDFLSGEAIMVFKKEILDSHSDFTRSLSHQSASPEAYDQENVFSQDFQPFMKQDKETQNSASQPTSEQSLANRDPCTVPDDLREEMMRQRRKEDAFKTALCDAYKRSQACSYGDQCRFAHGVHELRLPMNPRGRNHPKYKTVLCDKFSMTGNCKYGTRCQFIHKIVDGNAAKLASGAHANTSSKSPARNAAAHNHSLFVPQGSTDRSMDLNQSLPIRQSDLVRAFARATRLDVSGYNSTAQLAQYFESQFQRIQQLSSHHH

[9] = system: BJ; assay: cytotoxicity toward BJ-TERT-LT-ST fibroblasts, dose response, cell-based, RAS-independent, luminescence (AID 1935); assay type: functional; conditions: Homo sapiens;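 also: BJ fibroblasts immortalized with TERT plus LT and ST oncogenes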
[10] = target: Neurotensin receptor type 1 (Homo sapiens, UniProt P30989); assay type: functional;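 also: Image-based confirmatory dose-response assay measuring agonist activity at NTR1; NTR1-expressing U2OS osteosarcoma cells imaged for beta-arrestin GFP spot formation; agonist potency where compounds increase beta-arrestin recruitment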
[11] = target: Photoreceptor-specific nuclear receptor (Homo sapiens, UniProt Q9Y5X4); assay type: functional, cell-based;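 also: CHO-S cells with Gal4-NCOR and VP16-NR2E3 two-hybrid luciferase reporter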
[12] = target: T4, Probable nicotinate-nucleotide adenylyltransferase (Staphylococcus aureus (strain N315), UniProt P65502); assay type: functional, Staphylococcus aureus subsp. aureus N315;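 as to IC50 Mean: confirmatory dose-response retesting of NadD inhibitor hits first found in an ultra-high-throughput screen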
[13] = target: DNA (cytosine-5)-methyltransferase 1 (Homo sapiens, UniProt P26358); assay: DNMT1 methyltransferase inhibitors, confirmation, biochemical, fluorescent molecular beacon (AID 602386); assay type: functional
[14] = target: T4, Probable nicotinate-nucleotide adenylyltransferase; assay type: functional, Staphylococcus aureus subsp. aureus N315; conditions: read-out: IC50_Mean
[15] = target: T5, Carboxy-terminal domain RNA polymerase II polypeptide A small phosphatase 1 (Homo sapiens, UniProt Q9GZU7); assay: inhibitors of CTDSP1, concentration-response testing, biochemical assay, absorbance-based, actives from ultra-high-throughput screening (AID 540297); assay type: functional
T5 sequence (Q9GZU7 whole entry): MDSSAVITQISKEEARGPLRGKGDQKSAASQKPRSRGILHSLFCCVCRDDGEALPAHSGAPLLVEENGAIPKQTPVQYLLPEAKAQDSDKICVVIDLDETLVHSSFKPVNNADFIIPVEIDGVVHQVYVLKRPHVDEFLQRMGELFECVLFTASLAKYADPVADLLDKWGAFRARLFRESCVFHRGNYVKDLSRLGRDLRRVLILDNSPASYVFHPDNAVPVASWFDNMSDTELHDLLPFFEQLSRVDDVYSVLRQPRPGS

[16] = target: Hepatocyte nuclear factor 4-alpha (Homo sapiens, UniProt P41235); assay type: functional, cell-based;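 also: biochemical luminescence-based dose-response counterscreen measuring inhibition of HNF4 dimerization, run alongside a screen for blockers of ABHD5–perilipin-5 interaction; split luciferase complementation of HNF4 fusion proteins in cell lysate measuring dimerization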
[17] = target: Melanocortin receptor 4 (Homo sapiens, UniProt P32245); assay type: functional, cell-based;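 also: Cell-based assay with luminescence read-out, confirmatory dose-response testing for agonist activity of biased ligands at MC4R; human U2OS cells with tagged receptor and beta-arrestin; potency of agonists that increase receptor coupling to beta-arrestin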
[18] = target: Paired box protein Pax-8 (Homo sapiens, UniProt Q06710); assay: inhibitors of PAX8-driven TPO luciferase reporter, dose response, RMG-I cells, cherry-pick (AID 687027); assay type: functional, cell-based;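 also: luciferase reporter driven by Pax8 target thyroperoxidase promoter measured by SteadyGlo luminescence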
[19] = target: T6, DNA repair protein RAD52 homolog (Homo sapiens, UniProt P43351); assay type: functional, biochemical
T6 sequence (P43351 whole entry): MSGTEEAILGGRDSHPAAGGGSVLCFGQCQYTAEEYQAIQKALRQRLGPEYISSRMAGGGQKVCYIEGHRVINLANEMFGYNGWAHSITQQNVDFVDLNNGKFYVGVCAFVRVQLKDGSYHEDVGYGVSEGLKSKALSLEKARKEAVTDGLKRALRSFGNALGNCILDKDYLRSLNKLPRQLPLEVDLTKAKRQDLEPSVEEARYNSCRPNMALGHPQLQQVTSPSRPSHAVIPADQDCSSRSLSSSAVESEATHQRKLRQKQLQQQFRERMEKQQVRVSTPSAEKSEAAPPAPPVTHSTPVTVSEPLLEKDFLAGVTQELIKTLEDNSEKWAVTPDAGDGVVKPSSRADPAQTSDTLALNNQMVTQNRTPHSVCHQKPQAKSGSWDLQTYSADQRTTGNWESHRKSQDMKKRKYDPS

[20] = target: T7, Sentrin-specific protease 1 (Homo sapiens, UniProt Q9P0U3); assay: potency of human SENP1 inhibitors, dose response, biochemical, kinetic FRET (AID 651697); assay type: functional; conditions: read-out: IC50_Mean
[21] = target: T7, Sentrin-specific protease 1; assay: Dose response confirmation of small molecule inhibitors of the catalytic domain of the SUMO protease, SENP1 in a FRET assay.; assay type: functional; conditions: read-out: IC50_Mean
[22] = target: Heat shock protein HSP 90-alpha (Homo sapiens, UniProt P07900); assay type: functional, organism-based
[23] = target: T8, Aryl hydrocarbon receptor (Homo sapiens, UniProt P35869); conditions: Potency;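 also: confirmatory quantitative high-throughput screen measuring activation of the AhR signaling pathway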
T8 sequence (P35869 whole entry): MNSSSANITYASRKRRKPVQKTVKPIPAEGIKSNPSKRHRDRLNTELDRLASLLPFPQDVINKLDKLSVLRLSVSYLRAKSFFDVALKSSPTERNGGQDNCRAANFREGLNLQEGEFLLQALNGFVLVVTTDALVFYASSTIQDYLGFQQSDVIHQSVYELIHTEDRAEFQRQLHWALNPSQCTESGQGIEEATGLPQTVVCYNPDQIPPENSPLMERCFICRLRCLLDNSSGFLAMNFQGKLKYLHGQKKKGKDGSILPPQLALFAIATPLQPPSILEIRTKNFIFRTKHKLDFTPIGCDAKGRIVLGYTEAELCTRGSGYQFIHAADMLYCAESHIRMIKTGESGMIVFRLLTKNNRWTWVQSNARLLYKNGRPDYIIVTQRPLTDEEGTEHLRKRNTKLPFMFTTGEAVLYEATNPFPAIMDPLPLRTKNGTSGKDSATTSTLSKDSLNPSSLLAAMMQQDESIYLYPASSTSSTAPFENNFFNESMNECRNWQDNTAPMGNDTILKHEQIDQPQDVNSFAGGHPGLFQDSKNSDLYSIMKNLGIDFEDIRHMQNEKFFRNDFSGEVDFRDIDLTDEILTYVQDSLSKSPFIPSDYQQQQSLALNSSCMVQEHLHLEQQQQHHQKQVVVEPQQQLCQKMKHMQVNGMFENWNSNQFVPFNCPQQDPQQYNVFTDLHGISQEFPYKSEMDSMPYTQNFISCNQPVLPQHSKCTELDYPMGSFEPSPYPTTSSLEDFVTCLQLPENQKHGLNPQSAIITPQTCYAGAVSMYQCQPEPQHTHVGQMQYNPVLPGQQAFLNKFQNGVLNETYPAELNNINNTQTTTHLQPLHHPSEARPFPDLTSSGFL

[24] = microbe, parasite or virus in culture; assay type: functional; conditions: Mycobacterium tuberculosis
[25] = target: COUP transcription factor 2 (Homo sapiens, UniProt P24468); assay: Luminescence-based cell-based high throughput dose response assay to identify inhibitors of COUP-TFII (NR2F2).; assay type: functional;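 also: HEK293 cells transiently cotransfected with COUP-TFII expression vector and reporter; luciferase reporter luminescence driven by COUP-TFII from the pX2-168 reporter plasmid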
[26] = target: Protein Wnt-3a (Mus musculus, UniProt P27467); assay: Wnt3a-driven reporter signaling inhibition, dose response, selectivity assay for Gli-SUFU antagonist project, Wnt-LIGHT cells, luminescence (AID 651570); assay type: functional; conditions: read-out: IC50_Mean;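 also: Wnt-LIGHT reporter cells stimulated with conditioned medium from Wnt3a-producing cells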
[27] = system: HEK293; assay: inhibitors of LMP1-driven NF-kB reporter, dose response, cell-based, HEK293, luciferase, cherry-pick (AID 588343); assay type: functional; conditions: Homo sapiens

T4 sequence (P65502 whole entry): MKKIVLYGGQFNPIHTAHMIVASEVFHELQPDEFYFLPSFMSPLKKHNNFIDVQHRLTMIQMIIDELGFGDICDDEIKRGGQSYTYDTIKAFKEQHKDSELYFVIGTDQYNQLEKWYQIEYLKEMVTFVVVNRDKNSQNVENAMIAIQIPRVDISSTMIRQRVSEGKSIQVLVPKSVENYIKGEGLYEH
T7 sequence (Q9P0U3 whole entry, the tested form may be a part): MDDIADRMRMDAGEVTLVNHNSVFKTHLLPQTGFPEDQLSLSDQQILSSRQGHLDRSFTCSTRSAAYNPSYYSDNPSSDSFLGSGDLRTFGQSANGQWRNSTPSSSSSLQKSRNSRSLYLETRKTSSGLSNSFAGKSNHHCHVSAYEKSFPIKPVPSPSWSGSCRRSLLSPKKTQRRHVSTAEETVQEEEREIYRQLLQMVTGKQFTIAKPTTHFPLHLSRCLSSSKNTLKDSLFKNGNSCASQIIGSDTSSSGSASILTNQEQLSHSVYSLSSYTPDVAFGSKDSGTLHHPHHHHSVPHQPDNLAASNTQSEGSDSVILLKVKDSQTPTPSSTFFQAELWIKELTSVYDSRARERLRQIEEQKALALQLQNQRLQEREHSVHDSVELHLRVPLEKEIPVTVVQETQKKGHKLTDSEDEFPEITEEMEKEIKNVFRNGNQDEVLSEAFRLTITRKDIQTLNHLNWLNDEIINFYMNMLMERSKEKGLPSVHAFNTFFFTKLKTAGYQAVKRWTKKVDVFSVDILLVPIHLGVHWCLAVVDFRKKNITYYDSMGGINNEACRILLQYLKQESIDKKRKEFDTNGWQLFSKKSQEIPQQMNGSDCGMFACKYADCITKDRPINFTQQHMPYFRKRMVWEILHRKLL
T1 sequence (P08183 whole entry): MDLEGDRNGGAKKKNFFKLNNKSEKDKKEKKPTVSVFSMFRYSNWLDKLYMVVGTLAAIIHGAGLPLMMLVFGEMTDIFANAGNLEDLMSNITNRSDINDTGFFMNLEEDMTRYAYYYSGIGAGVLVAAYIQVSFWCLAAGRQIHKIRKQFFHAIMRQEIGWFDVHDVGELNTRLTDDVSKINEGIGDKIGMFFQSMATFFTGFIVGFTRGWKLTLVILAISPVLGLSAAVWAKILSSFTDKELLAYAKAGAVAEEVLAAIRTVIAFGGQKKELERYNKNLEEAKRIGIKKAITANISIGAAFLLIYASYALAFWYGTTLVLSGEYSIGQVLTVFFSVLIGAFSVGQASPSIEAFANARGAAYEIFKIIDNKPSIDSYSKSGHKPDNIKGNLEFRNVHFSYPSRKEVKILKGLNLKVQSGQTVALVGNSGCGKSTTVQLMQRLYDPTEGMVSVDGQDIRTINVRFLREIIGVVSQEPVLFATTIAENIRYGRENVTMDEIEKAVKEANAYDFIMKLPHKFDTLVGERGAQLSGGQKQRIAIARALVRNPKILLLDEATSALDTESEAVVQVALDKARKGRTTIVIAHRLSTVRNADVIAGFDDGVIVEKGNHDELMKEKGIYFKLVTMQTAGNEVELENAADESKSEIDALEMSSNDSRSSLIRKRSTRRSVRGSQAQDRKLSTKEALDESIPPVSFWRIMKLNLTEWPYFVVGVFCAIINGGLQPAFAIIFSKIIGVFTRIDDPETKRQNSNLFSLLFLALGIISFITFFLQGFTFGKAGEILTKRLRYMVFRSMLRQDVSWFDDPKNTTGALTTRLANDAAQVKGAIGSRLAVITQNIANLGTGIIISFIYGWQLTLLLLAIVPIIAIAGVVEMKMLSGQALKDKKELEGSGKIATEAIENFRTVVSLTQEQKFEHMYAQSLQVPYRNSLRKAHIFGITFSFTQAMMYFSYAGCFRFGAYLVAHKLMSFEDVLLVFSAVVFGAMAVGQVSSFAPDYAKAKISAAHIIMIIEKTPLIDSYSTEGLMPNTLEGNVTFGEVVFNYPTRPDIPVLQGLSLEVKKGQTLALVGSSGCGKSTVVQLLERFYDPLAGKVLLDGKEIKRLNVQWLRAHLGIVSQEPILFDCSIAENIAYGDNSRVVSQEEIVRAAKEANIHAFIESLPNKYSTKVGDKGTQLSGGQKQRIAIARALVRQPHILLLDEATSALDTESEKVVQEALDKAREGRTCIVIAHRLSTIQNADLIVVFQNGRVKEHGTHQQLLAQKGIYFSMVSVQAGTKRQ
ADP-ribosylation factor GTPase-activating protein 1, sequence (Q62848 whole entry): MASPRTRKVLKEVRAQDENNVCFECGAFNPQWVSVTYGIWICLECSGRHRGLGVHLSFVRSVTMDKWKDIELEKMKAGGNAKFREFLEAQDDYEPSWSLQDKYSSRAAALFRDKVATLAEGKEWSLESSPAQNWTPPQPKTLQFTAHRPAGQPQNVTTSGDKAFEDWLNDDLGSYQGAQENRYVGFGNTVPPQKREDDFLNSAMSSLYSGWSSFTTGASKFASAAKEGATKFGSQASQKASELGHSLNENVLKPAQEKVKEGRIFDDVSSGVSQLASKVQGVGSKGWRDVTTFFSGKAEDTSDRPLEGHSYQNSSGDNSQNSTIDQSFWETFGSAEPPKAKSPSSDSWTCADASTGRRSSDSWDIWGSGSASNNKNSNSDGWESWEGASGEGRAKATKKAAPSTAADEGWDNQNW
Paired box protein Pax-8, sequence (Q06710 whole entry): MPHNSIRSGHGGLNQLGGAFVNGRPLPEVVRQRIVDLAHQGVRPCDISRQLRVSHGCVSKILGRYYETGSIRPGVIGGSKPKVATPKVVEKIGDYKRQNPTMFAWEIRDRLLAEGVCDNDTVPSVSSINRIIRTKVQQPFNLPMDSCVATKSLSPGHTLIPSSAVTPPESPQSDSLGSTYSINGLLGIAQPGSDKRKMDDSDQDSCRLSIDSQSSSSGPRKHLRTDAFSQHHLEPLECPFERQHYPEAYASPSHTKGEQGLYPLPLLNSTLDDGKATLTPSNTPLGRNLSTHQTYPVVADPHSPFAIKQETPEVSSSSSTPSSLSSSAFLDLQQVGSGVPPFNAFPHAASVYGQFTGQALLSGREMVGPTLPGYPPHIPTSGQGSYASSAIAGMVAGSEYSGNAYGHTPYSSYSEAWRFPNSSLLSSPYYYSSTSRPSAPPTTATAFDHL
Neurotensin receptor type 1, sequence (P30989 whole entry, the tested form may be a part): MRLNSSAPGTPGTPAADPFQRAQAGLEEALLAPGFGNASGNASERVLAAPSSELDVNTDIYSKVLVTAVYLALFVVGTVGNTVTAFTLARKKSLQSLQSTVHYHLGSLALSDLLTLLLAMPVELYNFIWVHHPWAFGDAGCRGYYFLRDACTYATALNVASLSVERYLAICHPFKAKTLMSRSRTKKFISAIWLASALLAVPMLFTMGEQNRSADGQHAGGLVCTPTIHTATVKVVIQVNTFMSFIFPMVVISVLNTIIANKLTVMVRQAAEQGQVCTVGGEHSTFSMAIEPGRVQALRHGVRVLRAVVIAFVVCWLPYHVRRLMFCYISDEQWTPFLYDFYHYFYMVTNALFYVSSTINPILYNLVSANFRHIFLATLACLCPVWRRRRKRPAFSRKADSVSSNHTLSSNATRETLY
DNA (cytosine-5)-methyltransferase 1, sequence (P26358 whole entry): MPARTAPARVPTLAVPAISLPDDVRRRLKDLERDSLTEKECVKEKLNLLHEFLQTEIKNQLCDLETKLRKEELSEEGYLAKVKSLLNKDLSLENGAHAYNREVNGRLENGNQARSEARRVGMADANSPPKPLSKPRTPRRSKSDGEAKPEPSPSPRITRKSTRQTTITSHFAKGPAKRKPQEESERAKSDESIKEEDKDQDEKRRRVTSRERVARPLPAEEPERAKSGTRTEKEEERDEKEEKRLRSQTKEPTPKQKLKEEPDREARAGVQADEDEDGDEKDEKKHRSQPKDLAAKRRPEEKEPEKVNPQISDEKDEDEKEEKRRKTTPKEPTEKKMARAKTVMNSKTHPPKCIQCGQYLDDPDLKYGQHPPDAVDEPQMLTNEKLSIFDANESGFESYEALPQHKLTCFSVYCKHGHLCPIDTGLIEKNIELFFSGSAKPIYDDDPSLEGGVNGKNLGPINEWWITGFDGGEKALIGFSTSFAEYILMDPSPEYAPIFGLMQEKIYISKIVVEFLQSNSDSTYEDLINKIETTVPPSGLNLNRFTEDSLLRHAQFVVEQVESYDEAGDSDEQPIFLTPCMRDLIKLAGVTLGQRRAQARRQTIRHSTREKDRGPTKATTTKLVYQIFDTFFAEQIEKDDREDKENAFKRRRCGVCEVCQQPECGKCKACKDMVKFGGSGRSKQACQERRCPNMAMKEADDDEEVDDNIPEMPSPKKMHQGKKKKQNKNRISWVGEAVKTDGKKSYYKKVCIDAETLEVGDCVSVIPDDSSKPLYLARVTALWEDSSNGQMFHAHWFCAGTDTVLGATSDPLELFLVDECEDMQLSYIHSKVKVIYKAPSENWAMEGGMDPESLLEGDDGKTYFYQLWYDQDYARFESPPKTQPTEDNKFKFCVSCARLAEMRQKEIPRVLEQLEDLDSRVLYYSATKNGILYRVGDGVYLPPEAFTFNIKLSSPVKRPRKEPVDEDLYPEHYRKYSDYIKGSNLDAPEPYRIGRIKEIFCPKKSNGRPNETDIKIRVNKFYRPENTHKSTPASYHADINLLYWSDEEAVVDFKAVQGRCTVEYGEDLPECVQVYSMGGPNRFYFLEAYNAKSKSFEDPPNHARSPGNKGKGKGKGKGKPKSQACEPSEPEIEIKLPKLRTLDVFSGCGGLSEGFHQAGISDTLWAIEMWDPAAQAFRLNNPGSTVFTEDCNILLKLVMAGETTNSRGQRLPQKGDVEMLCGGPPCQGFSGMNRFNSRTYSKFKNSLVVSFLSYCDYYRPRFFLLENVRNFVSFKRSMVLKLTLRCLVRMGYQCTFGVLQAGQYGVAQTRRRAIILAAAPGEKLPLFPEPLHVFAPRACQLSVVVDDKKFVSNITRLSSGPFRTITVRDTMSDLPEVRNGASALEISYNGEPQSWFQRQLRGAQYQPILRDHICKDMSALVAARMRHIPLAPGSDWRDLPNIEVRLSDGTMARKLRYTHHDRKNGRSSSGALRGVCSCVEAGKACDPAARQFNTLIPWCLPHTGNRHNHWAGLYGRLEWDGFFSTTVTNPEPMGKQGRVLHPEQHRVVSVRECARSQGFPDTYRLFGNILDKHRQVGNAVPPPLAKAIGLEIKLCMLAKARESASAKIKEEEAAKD

O=C(c1ccoc1)N1CCN(c2cc(-c3ccccc3)nc3cc(-c4ccc(Br)cc4)nn23)CC1
EC50 [1]: 1.06 µM (active) | EC50 [2]: 0.6 µM (active)

COc1cc2c3nnc(-c4ccc(F)cc4)c-3cn(Cc3ccc(C)cc3)c2cc1OC
EC50 [3]: 1.1 µM (inconclusive) | IC50 [4]: 70 µM (inactive) | EC50 [5]: 5.16 µM (inconclusive) | EC50 [6]: 17.3 µM (active) | EC50 [7]: 10.4 µM (active) | EC50 [8]: 2.2 µM (inconclusive) | EC50 [9]: 4.86 µM (active) | EC50 [10]: 2.4 µM (active)

COc1ccc(CNC(=O)c2cccc3c(-c4ccc(F)c(F)c4)coc23)cc1OC
IC50 [11]: 4.63 µM (active)

CN(C)C(CNC(=O)c1cc(-c2ccco2)nc2ccccc12)c1ccccc1 (configuration not stated)
IC50 [12]: 11.2 µM (active) | IC50 [13]: 6.25 µM (active) | IC50 [14]: 25.9 µM (active) | IC50 [15]: 2.75 µM (active)

Cc1ccc(S(=O)(=O)N2C[C@H]3n4c(=O)ccc(=O)n4C[C@H](OC(=O)Nc4cccs4)[C@@]3(O)C2)cc1
IC50 [16]: 14.6 µM (inactive)

CC(=O)Nc1cc(-c2cccc(C(=O)NCCN(C)C)c2)cn2c(-c3cccc(C(F)(F)F)c3)cnc12
EC50 [17]: > 89.2 µM (inactive) | AC50 [18]: 11.5 µM (active) | AC50 [19]: 3.93 µM (active)

Cc1cc(C(=O)NCc2ccccc2F)c2ccccc2n1
IC50 [20]: 17.9 µM (active) | IC50 [21]: 10.8 µM (active)

CC(=O)N1CCN(c2ccc(OC[C@H]3CO[C@](Cn4ccnc4)(c4ccc(Cl)cc4Cl)O3)cc2)CC1 [KETOCONAZOLE]
AC50 [22]: 0.435 µM (active) | AC50 [23]: 44.7 µM (inconclusive) | CC50 [24]: > 40 µM (active)

COc1ccc(N2CCN(c3[nH]cnc4c5ccccc5nc3-4)CC2)cc1
IC50 [25]: 5.54 µM (active) | IC50 [26]: 1.14 µM (active) | AC50 [27]: 0.865 µM (active)
